Common to all, as to type: cell-based
One test addresses T1, hGCGR (Homo sapiens, UniProt P47871).
T1 construct: expressed in transfected cells
In words: Functional cAMP formation (HTRF) in HEK-293 clonal cells expressing hGCGR, 0.1% bovine casein, without or with 1.0% human serum albumin. In outline: (§1)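 Cells were stimulated with peptide for 30 min at 37° C, then intracellular cAMP was measured by competitive HTRF (665/620 nm ratio) and converted to nM using a cAMP standard curve. Relative EC50 and Emax came from four-parameter logistic fits of percent maximal response against peptide concentration.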

In another test the target is hGLP-1R (Homo sapiens, UniProt P43220). Description: Functional cAMP formation (HTRF) in HEK-293 clonal cells expressing hGLP-1R, 0.1% bovine casein, without or with 1.0% human serum albumin. Details: expressed in transfected cells. The conditions noted are these: for Emax: percent of maximal response to GLP-1(7-36)NH2; for EC50: geometric mean. The essentials: as §1
hGLP-1R, sequence (P43220 24-463): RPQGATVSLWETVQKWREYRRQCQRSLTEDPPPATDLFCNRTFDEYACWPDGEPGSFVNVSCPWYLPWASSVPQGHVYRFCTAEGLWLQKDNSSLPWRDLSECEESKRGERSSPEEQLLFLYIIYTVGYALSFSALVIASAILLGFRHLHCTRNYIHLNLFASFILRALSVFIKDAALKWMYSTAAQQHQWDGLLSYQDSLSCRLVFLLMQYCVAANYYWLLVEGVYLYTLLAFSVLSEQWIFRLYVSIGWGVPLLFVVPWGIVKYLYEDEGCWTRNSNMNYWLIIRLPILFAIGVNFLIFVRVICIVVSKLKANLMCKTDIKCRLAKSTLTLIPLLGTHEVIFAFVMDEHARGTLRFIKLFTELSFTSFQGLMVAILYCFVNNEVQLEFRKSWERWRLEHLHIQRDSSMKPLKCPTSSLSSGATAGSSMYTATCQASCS
The target of a further test is T2, hGIPR (Homo sapiens, UniProt P48546).
T2 construct: expressed in transfected cells
T2 sequence (P48546 22-466): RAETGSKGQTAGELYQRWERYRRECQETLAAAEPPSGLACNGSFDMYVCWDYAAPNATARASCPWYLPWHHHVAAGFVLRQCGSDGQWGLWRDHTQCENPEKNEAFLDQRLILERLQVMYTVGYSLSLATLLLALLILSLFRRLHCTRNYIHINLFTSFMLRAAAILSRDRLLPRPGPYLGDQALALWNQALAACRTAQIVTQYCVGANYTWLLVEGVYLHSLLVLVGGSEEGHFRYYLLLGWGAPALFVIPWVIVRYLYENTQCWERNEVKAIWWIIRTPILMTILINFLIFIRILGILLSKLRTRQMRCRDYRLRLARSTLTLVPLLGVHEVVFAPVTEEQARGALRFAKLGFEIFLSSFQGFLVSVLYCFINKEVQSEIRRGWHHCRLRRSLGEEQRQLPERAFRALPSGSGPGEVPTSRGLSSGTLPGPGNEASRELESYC
Description: Functional cAMP formation (HTRF) in HEK-293 clonal cells expressing hGIPR, 0.1% bovine casein, without or with 1.0% human serum albumin. The conditions noted are these: for Emax: percent of maximal response to GIP(1-42)NH2; for EC50: geometric mean. The essentials: as §1

Setting [1] is: hGCGR EC50, nM (SEM, n), cAMP, 37° C., 0.1% bovine casein (no human serum albumin), geometric mean.
[2] abbreviates: hGLP-1R EC50, nM (SEM, n), cAMP, 37° C., 0.1% bovine casein (no human serum albumin).
Where [3] appears, read: hGIPR EC50, nM (SEM, n), cAMP, 37° C., 0.1% bovine casein (no human serum albumin).
The mark [4] stands for this setting: hGCGR EC50, nM (SEM, n), 0.1% bovine casein and 1.0% human serum albumin, 37° C., geometric mean.
The mark [5] stands for this setting: HEK293, read-out: hGLP-1R Emax, % ± SEM, 0.1% bovine casein and 1.0% human serum albumin, 37° C.
Setting [6] is: HEK293, read-out: hGLP-1R Emax, % ± SEM, cAMP, 37° C., 0.1% bovine casein, arithmetic mean.

Like-named read-outs stand apart in the source and are kept apart here.

T1 sequence (P47871 26-477): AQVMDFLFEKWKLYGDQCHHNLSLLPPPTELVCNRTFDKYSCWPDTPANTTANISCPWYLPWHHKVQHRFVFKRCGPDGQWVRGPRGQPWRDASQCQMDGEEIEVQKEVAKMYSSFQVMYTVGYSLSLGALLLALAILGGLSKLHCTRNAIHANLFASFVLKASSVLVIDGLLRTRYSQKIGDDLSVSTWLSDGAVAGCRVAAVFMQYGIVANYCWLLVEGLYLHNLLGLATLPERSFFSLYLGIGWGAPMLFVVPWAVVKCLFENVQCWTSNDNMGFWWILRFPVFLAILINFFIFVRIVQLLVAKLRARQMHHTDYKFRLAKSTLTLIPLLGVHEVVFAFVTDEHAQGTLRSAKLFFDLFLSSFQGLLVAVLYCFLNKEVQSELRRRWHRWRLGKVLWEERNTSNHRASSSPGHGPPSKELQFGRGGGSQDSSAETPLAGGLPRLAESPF

For `CC[C@H](C)[C@H](NC(=O)[C@H](CCCN)NC(=O)[C@H](CC(=O)O)NC(=O)[C@H](CC(C)C)NC(=O)[C@](C)(CC(C)C)NC(=O)[C@@H](NC(=O)C(C)(C)NC(=O)[C@H](Cc1ccc(O)cc1)NC(=O)[C@H](CC(=O)O)NC(=O)[C@H](CO)NC(=O)[C@@H](NC(=O)[C@](C)(Cc1ccccc1F)NC(=O)[C@@H](NC(=O)CNC(=O)[C@H](CCC(=O)O)NC(=O)C(C)(C)NC(=O)[C@@H](N)Cc1ccc(O)cc1)[C@@H](C)O)[C@@H](C)O)[C@@H](C)CC)C(=O)N[C@@H](C)C(=O)N[C@@H](CCC(N)=O)C(=O)NC(C)(C)C(=O)N[C@@H](CCC(=O)O)C(=O)N[C@@H](Cc1ccccc1)C(=O)N[C@H](C(=O)N[C@@H](CCCCNC(=O)COCCOCCNC(=O)COCCOCCNC(=O)COCCOCCNC(=O)CC[C@H](NC(=O)CCCCCCCCCOc1ccc(C(=O)O)cc1)C(=O)O)C(=O)N[C@@](C)(Cc1ccc(O)cc1)C(=O)N[C@@H](CC(C)C)C(=O)N[C@H](C(=O)N[C@@H](CCCCNC(=O)COCCOCCNC(=O)COCCOCCNC(=O)COCCOCCNC(=O)CC[C@H](NC(=O)CCCCCCCCCOc1ccc(C(=O)O)cc1)C(=O)O)C(=O)NCC(=O)NCC(=O)N1CCC[C@H]1C(=O)N[C@@H](CO)C(=O)N[C@@H](CO)C(=O)NCC(=O)N[C@@H](C)C(=O)N1CCC[C@H]1C(=O)N1CCC[C@H]1C(=O)N1CCC[C@H]1C(=O)N[C@@H](CO)C(N)=O)[C@@H](C)CC)[C@@H](C)CC` [Example 346], the EC50 at hGCGR (setting [1]) is more than 9950 nM; on hGCGR (hGCGR EC50, nM (SEM, n), cAMP, 37° C., 0.1% bovine casein and 1.0% human serum albumin, geometric mean (SEM, n)), more than 9950 nM; at hGLP-1R (setting [2]), 0.329 nM; on hGIPR (setting [3]), 0.0194 nM. The maximal response (Emax) worked out at 97.7% on hGLP-1R (HEK293, read-out: hGLP-1R Emax, % ± SEM, cAMP, 37° C., 0.1% bovine casein and 1.0% human serum albumin); 83.9% on hGIPR (HEK293, read-out: hGIPR Emax, % ± SEM, cAMP, 37° C., 0.1% bovine casein and 1.0% human serum albumin); 96.6% at hGIPR (HEK293, read-out: hGIPR Emax, % ± SEM, cAMP, 37° C., 0.1% bovine casein, arithmetic mean).
`CC[C@H](C)[C@H](NC(=O)[C@H](CCCN)NC(=O)[C@H](CC(=O)O)NC(=O)[C@H](CC(C)C)NC(=O)[C@](C)(CC(C)C)NC(=O)[C@@H](NC(=O)[C@H](CO)NC(=O)[C@H](Cc1ccncc1)NC(=O)[C@H](CC(=O)O)NC(=O)[C@H](CO)NC(=O)[C@@H](NC(=O)[C@](C)(Cc1ccccc1F)NC(=O)[C@@H](NC(=O)CNC(=O)[C@H](CCC(=O)O)NC(=O)C(C)(C)NC(=O)[C@@H](N)Cc1ccc(O)cc1)[C@@H](C)O)[C@@H](C)O)[C@@H](C)CC)C(=O)N[C@@H](C)C(=O)N[C@@H](CCC(N)=O)C(=O)NC(C)(C)C(=O)N[C@@H](CCC(=O)O)C(=O)N[C@@H](Cc1ccccc1)C(=O)N[C@H](C(=O)N[C@@H](CCCCNC(=O)[C@@H](N)CCCCNC(=O)CC[C@H](NC(=O)CCCCCCCCCCCCC(=O)O)C(=O)O)C(=O)N[C@@](C)(Cc1ccc(O)cc1)C(=O)N[C@@H](CC(C)C)C(=O)N[C@H](C(=O)N[C@@H](CCC(=O)O)C(=O)NCC(=O)NCC(=O)N[C@@H](CCCCNC(=O)[C@@H](N)CCCCNC(=O)CC[C@H](NC(=O)CCCCCCCCCCCCC(=O)O)C(=O)O)C(=O)N[C@@H](CO)C(=O)N[C@@H](CO)C(=O)NCC(=O)N[C@@H](C)C(=O)N1CCC[C@H]1C(=O)N1CCC[C@H]1C(=O)N1CCC[C@H]1C(=O)N[C@@H](CO)C(N)=O)[C@@H](C)CC)[C@@H](C)CC` [Example 197]: the EC50 is more than 9950 nM at hGCGR (0.1% bovine casein and 1.0% human serum albumin, 37° C., geometric mean, read-out: hGCGR EC50, nM (SEM, n)); more than 9950 nM at hGCGR (cAMP, incubated at 37° C., 0.1% bovine casein (no human serum albumin), geometric mean, read-out: hGCGR EC50, nM (SEM, n)); 26.2 nM at hGLP-1R (0.1% bovine casein and 1.0% human serum albumin, 37° C., read-out: hGLP-1R EC50, nM (SEM, n)); 0.336 nM at hGLP-1R (cAMP, incubated at 37° C., 0.1% bovine casein (no human serum albumin), read-out: hGLP-1R EC50, nM (SEM, n)); 2.06 nM at hGIPR (0.1% bovine casein and 1.0% human serum albumin, 37° C., read-out: hGIPR EC50, nM (SEM, n)); 0.0338 nM on hGIPR (cAMP, incubated at 37° C., 0.1% bovine casein (no human serum albumin), read-out: hGIPR EC50, nM (SEM, n)). Moreover, the Emax at hGIPR (HEK293, 0.1% bovine casein and 1.0% human serum albumin, 37° C., read-out: hGIPR Emax, % ± SEM) came to 84.5 ± 4.08%.
Take `CC[C@H](C)[C@H](NC(=O)[C@H](CCCN)NC(=O)[C@H](CC(=O)O)NC(=O)[C@H](CC(C)C)NC(=O)[C@](C)(CC(C)C)NC(=O)[C@@H](NC(=O)[C@H](CO)NC(=O)[C@H](Cc1ccncc1)NC(=O)[C@H](CC(=O)O)NC(=O)[C@H](CO)NC(=O)[C@@H](NC(=O)[C@](C)(Cc1ccccc1F)NC(=O)[C@@H](NC(=O)CNC(=O)[C@H](CCC(=O)O)NC(=O)C(C)(C)NC(=O)[C@@H](N)Cc1ccc(O)cc1)[C@@H](C)O)[C@@H](C)O)[C@@H](C)CC)C(=O)N[C@@H](C)C(=O)N[C@@H](CCC(N)=O)C(=O)NC(C)(C)C(=O)N[C@@H](CCC(=O)O)C(=O)N[C@@H](Cc1ccccc1)C(=O)N[C@H](C(=O)N[C@@H](CCCCNC(=O)COCCOCCNC(=O)COCCOCCNC(=O)CC[C@H](NC(=O)CCCCCCCCCCOc1ccc(C(=O)O)cc1)C(=O)O)C(=O)N[C@@](C)(Cc1ccc(O)cc1)C(=O)N[C@@H](CC(C)C)C(=O)N[C@H](C(=O)N[C@@H](CCCCNC(=O)COCCOCCNC(=O)COCCOCCNC(=O)CC[C@H](NC(=O)CCCCCCCCCCOc1ccc(C(=O)O)cc1)C(=O)O)C(=O)NCC(=O)NCC(=O)N1CCC[C@H]1C(=O)N[C@@H](CO)C(=O)N[C@@H](CO)C(=O)NCC(=O)N[C@@H](C)C(=O)N1CCC[C@H]1C(=O)N1CCC[C@H]1C(=O)N1CCC[C@H]1C(=O)N[C@@H](CO)C(N)=O)[C@@H](C)CC)[C@@H](C)CC` [Example 286]: the 50% effective concentration (EC50) on hGCGR (setting [4]) was more than 9950 nM; on hGCGR (setting [1]) it was more than 9950 nM; on hGIPR (hGIPR EC50, nM (SEM, n), 0.1% bovine casein and 1.0% human serum albumin, 37° C.), 2.18 nM. The Emax on hGLP-1R (setting [5]) turned out to be 90.3%; on hGLP-1R (setting [6]), 110%.
As to `CC[C@H](C)[C@H](NC(=O)[C@H](CCCN)NC(=O)[C@H](CC(=O)O)NC(=O)[C@H](CC(C)C)NC(=O)[C@](C)(CC(C)C)NC(=O)[C@@H](NC(=O)[C@H](CO)NC(=O)[C@H](Cc1ccncc1)NC(=O)[C@H](CC(=O)O)NC(=O)[C@H](CO)NC(=O)[C@@H](NC(=O)[C@](C)(Cc1ccccc1F)NC(=O)[C@@H](NC(=O)CNC(=O)[C@H](CCC(=O)O)NC(=O)C(C)(C)NC(=O)[C@@H](N)Cc1ccc(O)cc1)[C@@H](C)O)[C@@H](C)O)[C@@H](C)CC)C(=O)N[C@@H](C)C(=O)N[C@@H](CCC(N)=O)C(=O)NC(C)(C)C(=O)N[C@@H](CCC(=O)O)C(=O)N[C@@H](Cc1ccccc1)C(=O)N[C@H](C(=O)N[C@@H](CCCCNC(=O)COCCOCCNC(=O)COCCOCCNC(=O)CC[C@H](NC(=O)CCCCCCCCCOc1ccc(C(=O)O)cc1)C(=O)O)C(=O)N[C@@](C)(Cc1ccc(O)cc1)C(=O)N[C@@H](CC(C)C)C(=O)N[C@H](C(=O)N[C@@H](CCCCNC(=O)COCCOCCNC(=O)COCCOCCNC(=O)CC[C@H](NC(=O)CCCCCCCCCOc1ccc(C(=O)O)cc1)C(=O)O)C(=O)NCC(=O)NCC(=O)N1CCC[C@H]1C(=O)N[C@@H](CO)C(=O)N[C@@H](CO)C(=O)NCC(=O)N[C@@H](C)C(=O)N1CCC[C@H]1C(=O)N1CCC[C@H]1C(=O)N1CCC[C@H]1C(=O)N[C@@H](CO)C(N)=O)[C@@H](C)CC)[C@@H](C)CC` [Example 274], the EC50 at hGCGR (setting [4]) was more than 9950 nM; at hGCGR (setting [1]), more than 9950 nM; on hGLP-1R (setting [2]) it was 0.406 nM; at hGIPR (setting [3]), 0.0226 nM. Besides, the Emax on hGLP-1R (setting [5]) is 121%; at hGLP-1R (setting [6]), 114%; on hGIPR (HEK293, read-out: hGIPR Emax, % ± SEM, 0.1% bovine casein and 1.0% human serum albumin, 37° C.) it was 93.5%.

For the origin of these results see patent publication US20230265151A1, “GIP/GLP1 CO-AGONIST COMPOUNDS” (priority 2020, published 2023).
